# Experiments:
# [1] = target: FAS prepared from Saccharomyces cerevisiae (Saccharomyces cerevisiae, UniProt P07149+P19097); details: Li et al. (2002), cited from earlier work
# [2] = test system: FAS I enzyme from bovine liver; assay: FAS I assay (NADPH oxidation at 340 nm); assay type: biochemical, Indian water buffalo; details: for Average ΔC (change in concentration of NADPH): control 0.051383
# Protocol: Crude preparation of FAS I enzyme was made according to modified protocol of Dulter et al. (1971). Liver from freshly slaughtered Indian water buffalo was collected and transported in ice bucket and kept at 4° C. till processing. The liver was processed at the earliest by removing connective tissues and sliced into small pieces. Using a blender, about 750 g of liver was minced to form a suspension with 0.05 M potassium phosphate buffer pH 7.4 containing 1 mM EDTA to make up to a volume of 2.5 liters. The thick solution was centrifuged at 7500×g for 20 minutes to remove meat debris and the supernatant obtained was further centrifuged at 30000×g for 30 minutes to get a translucent solution. The supernatant was further diluted to specific volume using 0.05 M Potassium phosphate buffer (pH 7.4) with 1 mM EDTA and brought initially to 10% and then to 40% saturation with solid ammonium sulfate at 4° C. The 40% ammonium sulfate fraction was centrifuged and protein precipitate was re-dissolved in 0.05 mM Tris HCl buffer, pH 7.4, dialyzed against same buffer. The FAS I enzyme was further purified by ion exchange chromatography with Diethylaminoethyl (DEAE) cellulose column as described above (Dulter et al. 1971).
# FAS assay for FAS I enzyme was performed according to a modified process of Li et al. 2002. Crude protein was made up to a concentration of 0.5 mg/mL of protein and used for the assay. Assay was carried out in 96 well plates with the final working volume of 100 μL. Compounds to be tested were incubated with previously made crude protein extract for 30 minutes at 25° C. 50 μL of this mixture was added to 50 of reaction mixture containing 1 mM each of malonyl CoA and Nicotinamide adenine dinucleotide phosphate (NADPH), 40 μM acetyl CoA, and 2 mM Dithiothreitol (DTT) in phosphate buffer (250 mM).
# The microplate was read immediately for 10 minutes at 340 nm. FAS activity was calculated by subtracting the optical density (OD) value obtained after 1 minute from the OD value obtained after 10 minutes. FAS activity was calculated and compared with that of control and test compounds. Dimethyl sulfoxide (DMSO) was taken as control as it was used to dilute the compounds. […] The negative control consisted of protein plus reaction buffer. Another control consisted of buffer reaction without protein. The IC50 was determined by linear regression. FAS activity was determined by the rate of oxidation of NADPH to NADP which was monitored at 340 nm. The change in concentration of NADPH during oxidation was calculated using the following equation: ΔC=ΔA/E
# Where, ΔC was change in the concentration of NADPH, ΔA was change in absorbance, and E was extinction coefficient of NADPH (E340 nm=6.22 mM^−1·cm^−1). FAS activity was expressed as n mol NADPH oxidized/min/mg protein.
# Bacterial FAS II enzyme = assay: FAS II assay (NADPH oxidation at 340 nm); assay type: biochemical, Bacillus subtilis; details: for Average ΔC (change in concentration of NADPH): control 0.05037
# Protocol: Crude FAS containing protein fraction was isolated according to the modified protocol of Ahmad et al. (1981). Stock culture of Bacillus subtilis was inoculated in 100 mL LB broth pH 7.2 and cultured for 24 hours at room temperature. It was used for further inoculation of four 1000 mL flasks with same media and culture conditions. The flasks were placed in a rotator shaker to ensure adequate suspension of cells. Bacteria were harvested during the late-exponential phase of growth by centrifugation at 10000×g for 10 minutes and washed twice with 50 mM sodium phosphate buffer (pH 7.0) to provide cell pastes which were stored at -20° C. until use. Frozen cell pastes (25-35 g) were thawed and suspended in 50 mM sodium phosphate buffer (pH 7.0). The cell suspension was disrupted by sonication (12 W, 6×15 pulses with 15 second intervals) in 2 mL Eppendorf tubes containing 1.5 mL of cell suspension, supplemented with lysozyme (250 μg/mL) in a sonicator, operating at maximum power output while maintaining the temperature below 4° C. Unbroken cells and cell debris were removed by centrifugation at 30000×g for 30 minutes at 4° C. The […] were re-suspended in 50 mM sodium phosphate buffer (pH 7.0) and made up to appropriate volume and subjected to ammonium sulphate precipitation. Solid ammonium sulphate was added and the protein precipitate at 40-60% saturation was collected by centrifugation, dialyzed and used for further assay. FAS assay for FAS I enzyme was performed according to a modified process of Li et al. 2002. Crude protein was made up to a concentration of 0.5 mg/mL of protein and used for the assay. Assay was carried out in 96 well plates with the final working volume of 100 μL. […] The microplate was read immediately for 10 minutes at 340 nm. FAS activity was calculated by subtracting the optical density (OD) value obtained after 1 minute from the OD value obtained after 10 minutes. FAS activity was calculated and compared with that of control and test compounds. Dimethyl sulfoxide (DMSO) was taken as control as it was used to dilute the compounds. […] The negative control consisted of protein plus reaction buffer. Another control consisted of buffer reaction without protein. The IC50 was determined by linear regression. FAS activity was determined by the rate of oxidation of NADPH to NADP which was monitored at 340 nm. The change in concentration of NADPH during oxidation was calculated using the following equation: ΔC=ΔA/E Where, ΔC was change in the concentration of NADPH, ΔA was change in absorbance, and E was extinction coefficient of NADPH ([…] nm=6.22 mM^-1·cm^-1). FAS activity was expressed as n mol NADPH oxidized/min/mg protein. Assay using partially purified enzyme from Bacillus subtilis was also performed to verify the FAS II inhibitory activity of compound of Formula II. […] The graph was plotted with change in concentration of NADP to NADPH against time. Each point in graph was the concentration of NADPH measured on a spectrophotometer at 340 nm (FIGS. 6 and 7 for FAS II and FAS I respectively).
# [3] = test system: A549 lung carcinoma cells; assay: In-vitro anti-proliferative property on cultured A549 cells (MTT assay); assay type: cell-based; details: for Percentage Viability / IC50 anti-proliferative activity against A549 cells / viability at 6.25 µg/mL / viability at 12.5 µg/mL / viability at 25 µg/mL / viability at 50 µg/mL / viability at 100 µg/mL: 24 hours; for IC50 anti-proliferative activity against A549 cells / IC50: MTT; for IC50 / viability at 6.25 µg/mL / viability at 12.5 µg/mL / viability at 25 µg/mL / viability at 50 µg/mL / viability at 100 µg/mL: Homo sapiens; for IC50: A549, 24 h, read-out: IC50 anti-proliferative activity against A549 cells; for viability at 6.25 µg/mL / viability at 12.5 µg/mL / viability at 25 µg/mL / viability at 50 µg/mL / viability at 100 µg/mL: read-out: Percentage Viability
# Protocol: A549 lung carcinoma cells were maintained in Dulbecco's modified eagles media (Himedia, India) supplemented with 10% FBS (Invitrogen, India) and grown to confluence at 37° C. and 5% CO2 in a humidified atmosphere using a CO2 incubator (NBS, Eppendorf, Germany). The cells were trypsinized (500 μL of 0.025% trypsin in PBS/0.5 mM EDTA solution (Himedia, India) for 2 minutes and transferred to T flasks under aseptic condition. Test compounds were added to grown cells with a final concentration of 6.25, 12.5, 25, 50, 100 μg/mL from a stock of 1 mg/mL and incubated for 24 hours. The % difference in viability was determined by standard MTT assay (Arung et al. 2000) after 24 hours of incubation. Viability percentage was calculated using the Formula, % viability=(OD of Test/OD of Control)×100
# L929 (Fibroblast cells) = assay: In-vitro cytotoxic effect on cultured L929 cells (MTT assay); assay type: cell-based; details: MTT, 24 hours
# Protocol: (§1) Cultures of L929 (Fibroblast cells) were maintained in Dulbecco's modified eagles media supplemented with 10% fetal bovine serum (FBS) and grown to confluence at 37° C. and 5% CO2 in a humidified atmosphere using a CO2 incubator. The cells were trypsinised (500 μL of 0.025% Trypsin in PBS/0.5 mM Ethylene diamine tetraacetic acid (EDTA) solution for 2 minutes and passed to T flasks under complete aseptic conditions. Test compounds were added to grown cells at a final concentration of 6.25, 12.5, 25, 50 and 100 μg/mL from a stock of 1 mg/mL and incubated for 24 hours. The percentage difference in viability was determined by standard MTT assay after 24 hours of incubation. The MTT assay is a colorimetric assay for assessing cell metabolic activity. NAD (P) H-dependent cellular oxidoreductase enzymes under defined conditions, reflect the number of viable cells present.
# (§2) Viability percentage was calculated using the Formula, % viability=(OD of Test/OD of control)×100, • where control OD was 0.993.
# [4] = as above; assay type: cell-based; details: mouse
# Protocol: as §1, §2
# FAS prepared from Saccharomyces cerevisiae, sequence (P07149 whole entry): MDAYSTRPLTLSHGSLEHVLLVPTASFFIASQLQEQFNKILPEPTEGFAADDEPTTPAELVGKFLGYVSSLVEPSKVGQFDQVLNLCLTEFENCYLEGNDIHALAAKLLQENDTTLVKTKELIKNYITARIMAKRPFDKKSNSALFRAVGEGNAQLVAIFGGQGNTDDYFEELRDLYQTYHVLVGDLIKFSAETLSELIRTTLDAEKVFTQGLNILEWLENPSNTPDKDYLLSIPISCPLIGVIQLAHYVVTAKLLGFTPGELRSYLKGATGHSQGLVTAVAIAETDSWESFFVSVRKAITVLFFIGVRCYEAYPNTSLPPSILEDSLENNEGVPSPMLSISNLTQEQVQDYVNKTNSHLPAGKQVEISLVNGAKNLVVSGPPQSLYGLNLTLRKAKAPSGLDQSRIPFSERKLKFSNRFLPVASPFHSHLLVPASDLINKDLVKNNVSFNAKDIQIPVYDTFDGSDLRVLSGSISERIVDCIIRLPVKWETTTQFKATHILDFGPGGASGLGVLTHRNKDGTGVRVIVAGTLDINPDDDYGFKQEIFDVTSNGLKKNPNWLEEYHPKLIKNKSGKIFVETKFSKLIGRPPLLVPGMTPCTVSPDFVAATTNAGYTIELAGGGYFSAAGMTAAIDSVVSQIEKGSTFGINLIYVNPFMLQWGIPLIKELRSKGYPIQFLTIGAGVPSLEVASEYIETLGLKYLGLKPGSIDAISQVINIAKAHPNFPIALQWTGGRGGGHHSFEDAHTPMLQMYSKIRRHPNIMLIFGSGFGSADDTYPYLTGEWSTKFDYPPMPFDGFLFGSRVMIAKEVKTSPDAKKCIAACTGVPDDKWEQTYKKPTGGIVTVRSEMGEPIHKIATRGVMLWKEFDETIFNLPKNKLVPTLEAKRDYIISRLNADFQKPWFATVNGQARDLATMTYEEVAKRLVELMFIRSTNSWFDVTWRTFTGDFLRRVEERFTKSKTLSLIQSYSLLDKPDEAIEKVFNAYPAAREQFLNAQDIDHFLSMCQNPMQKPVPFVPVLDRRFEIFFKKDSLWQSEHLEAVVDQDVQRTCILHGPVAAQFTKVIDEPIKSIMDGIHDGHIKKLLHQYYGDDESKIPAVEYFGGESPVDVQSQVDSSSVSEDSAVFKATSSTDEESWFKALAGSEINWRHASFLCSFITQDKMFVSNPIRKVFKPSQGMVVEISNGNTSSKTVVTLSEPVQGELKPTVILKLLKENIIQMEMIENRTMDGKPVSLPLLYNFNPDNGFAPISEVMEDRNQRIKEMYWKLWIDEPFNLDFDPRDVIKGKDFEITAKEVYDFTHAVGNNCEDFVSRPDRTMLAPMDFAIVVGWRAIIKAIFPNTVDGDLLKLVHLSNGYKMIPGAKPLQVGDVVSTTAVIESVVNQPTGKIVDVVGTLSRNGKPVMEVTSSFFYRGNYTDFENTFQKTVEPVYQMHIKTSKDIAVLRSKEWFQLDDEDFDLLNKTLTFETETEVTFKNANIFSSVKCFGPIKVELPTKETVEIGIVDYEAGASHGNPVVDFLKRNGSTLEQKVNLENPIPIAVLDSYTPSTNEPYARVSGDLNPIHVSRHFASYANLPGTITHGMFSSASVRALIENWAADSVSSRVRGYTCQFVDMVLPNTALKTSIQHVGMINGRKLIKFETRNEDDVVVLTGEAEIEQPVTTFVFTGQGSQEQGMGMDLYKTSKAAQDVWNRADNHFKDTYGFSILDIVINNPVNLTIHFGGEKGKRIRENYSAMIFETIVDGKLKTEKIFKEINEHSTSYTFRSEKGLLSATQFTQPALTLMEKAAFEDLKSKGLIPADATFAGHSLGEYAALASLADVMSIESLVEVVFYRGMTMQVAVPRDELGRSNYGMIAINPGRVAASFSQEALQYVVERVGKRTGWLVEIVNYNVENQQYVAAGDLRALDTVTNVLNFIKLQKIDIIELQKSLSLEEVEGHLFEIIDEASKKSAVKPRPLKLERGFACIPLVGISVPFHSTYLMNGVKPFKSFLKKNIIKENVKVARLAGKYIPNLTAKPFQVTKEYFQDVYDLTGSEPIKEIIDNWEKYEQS
# FAS prepared from Saccharomyces cerevisiae, sequence (P19097 whole entry): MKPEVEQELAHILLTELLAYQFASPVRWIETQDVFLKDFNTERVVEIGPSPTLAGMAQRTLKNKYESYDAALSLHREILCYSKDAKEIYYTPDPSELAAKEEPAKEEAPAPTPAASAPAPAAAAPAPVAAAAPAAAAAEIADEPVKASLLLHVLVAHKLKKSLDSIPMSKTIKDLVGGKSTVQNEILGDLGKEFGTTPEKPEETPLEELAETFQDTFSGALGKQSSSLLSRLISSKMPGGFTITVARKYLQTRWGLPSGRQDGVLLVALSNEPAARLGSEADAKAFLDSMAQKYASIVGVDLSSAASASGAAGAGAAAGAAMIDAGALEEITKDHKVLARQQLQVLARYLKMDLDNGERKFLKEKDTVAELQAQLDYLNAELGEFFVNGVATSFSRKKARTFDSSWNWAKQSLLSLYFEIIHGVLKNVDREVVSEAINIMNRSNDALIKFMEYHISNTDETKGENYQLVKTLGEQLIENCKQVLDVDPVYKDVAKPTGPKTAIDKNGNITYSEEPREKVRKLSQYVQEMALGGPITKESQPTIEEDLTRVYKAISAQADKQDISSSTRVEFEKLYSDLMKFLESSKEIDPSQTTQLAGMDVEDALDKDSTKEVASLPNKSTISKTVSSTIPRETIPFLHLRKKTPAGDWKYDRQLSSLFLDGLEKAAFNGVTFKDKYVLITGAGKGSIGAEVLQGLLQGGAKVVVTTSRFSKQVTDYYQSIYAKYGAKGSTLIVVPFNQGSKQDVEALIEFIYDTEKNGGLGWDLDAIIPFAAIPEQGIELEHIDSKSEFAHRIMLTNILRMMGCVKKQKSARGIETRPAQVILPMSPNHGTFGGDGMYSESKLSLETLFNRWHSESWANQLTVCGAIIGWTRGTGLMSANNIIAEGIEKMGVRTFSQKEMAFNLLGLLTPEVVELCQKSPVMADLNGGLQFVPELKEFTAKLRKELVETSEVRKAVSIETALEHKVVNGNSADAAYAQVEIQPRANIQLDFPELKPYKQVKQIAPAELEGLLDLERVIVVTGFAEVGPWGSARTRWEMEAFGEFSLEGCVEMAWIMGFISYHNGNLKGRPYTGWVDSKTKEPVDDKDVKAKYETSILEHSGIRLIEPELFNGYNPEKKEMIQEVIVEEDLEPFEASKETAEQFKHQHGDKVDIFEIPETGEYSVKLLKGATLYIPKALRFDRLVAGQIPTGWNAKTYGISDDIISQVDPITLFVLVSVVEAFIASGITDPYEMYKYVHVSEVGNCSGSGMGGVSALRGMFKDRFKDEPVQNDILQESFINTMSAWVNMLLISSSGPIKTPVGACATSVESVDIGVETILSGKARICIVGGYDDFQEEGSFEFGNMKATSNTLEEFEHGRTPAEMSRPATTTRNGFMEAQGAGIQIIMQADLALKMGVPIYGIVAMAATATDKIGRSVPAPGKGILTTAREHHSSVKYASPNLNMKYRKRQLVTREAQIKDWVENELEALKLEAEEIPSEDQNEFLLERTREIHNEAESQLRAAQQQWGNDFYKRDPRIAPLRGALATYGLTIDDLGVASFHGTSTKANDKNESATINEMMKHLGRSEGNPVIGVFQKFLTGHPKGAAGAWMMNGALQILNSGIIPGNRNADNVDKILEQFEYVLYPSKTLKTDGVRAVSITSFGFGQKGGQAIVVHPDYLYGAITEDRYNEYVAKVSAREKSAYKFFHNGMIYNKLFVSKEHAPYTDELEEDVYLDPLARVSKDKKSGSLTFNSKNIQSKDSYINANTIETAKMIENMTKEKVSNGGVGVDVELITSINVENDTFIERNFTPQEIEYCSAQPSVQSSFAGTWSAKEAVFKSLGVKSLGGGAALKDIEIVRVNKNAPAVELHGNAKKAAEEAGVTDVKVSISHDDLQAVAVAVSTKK
Structure (SMILES),Inhibition compared to control [2],Average ΔC (change in concentration of NADPH) [2],Inhibition compared to control (Bacterial FAS II enzyme),Average ΔC (change in concentration of NADPH) (Bacterial FAS II enzyme),IC50 anti-proliferative activity against A549 cells [3],IC50 [3],"viability at 6.25 µg/mL ([3]; A549, 6.25 μg/mL)","viability at 12.5 µg/mL ([3]; A549, 12.5 μg/mL)","viability at 25 µg/mL ([3]; A549, 25 μg/mL)","viability at 50 µg/mL ([3]; A549, 50 μg/mL)","viability at 100 µg/mL ([3]; A549, 100 μg/mL)",further results
O=Cc1cc(-c2coc3cc(O)cc(O)c3c2=O)ccc1O [3′-Formylgenistein],,,,,,,,,,,,IC50 ([1]; read-out: IC50 against FAS (converted)): 7.71 µM
C=C1C(=O)OC(CCCCCCCC)C1C(=O)O (stereo not drawn) [C75],29.60%,0.03612,15.67%,0.04248,99.034 µg/mL,,,,,,,"Percentage Viability ([3]; A549, 6.25 μg/mL): 100.0%; Percentage Viability ([3]; A549, 12.5 μg/mL): 100.0%; Percentage Viability ([3]; A549, 25 μg/mL): 80.110%; Percentage Viability ([3]; A549, 50 μg/mL): 66.483%; Percentage Viability ([3]; A549, 100 μg/mL): 55.985%"
C/C=C/C/C=C/CCC(=O)[C@H]1O[C@H]1C(N)=O [Cerulenin],36.49%,0.03248,21.48%,0.03955,,86.4 µg/mL,100%,96.9%,72%,62.2%,48.1%,
"CC(C)[C@H](O)C(=O)/C(O)=C/[C@@H](N)/C=C\CCCC[C@H]1C=C[C@@H](O)C=C1 [Compound of Formula II, (3S,5Z,7S,8Z)-7-amino-3,5-dihydroxy-2-methyl-13-[(1s,4s)-4-hydroxycyclohexa-2,5-dien-1-yl]trideca-5,8-dien-4-one]",41.49%,0.03006,30.54%,0.03498,76.034 µg/mL,74 to 78 µg/mL,92.3%,89.7%,67.4%,55.7%,42.6%,"LD50 against L929 cell lines (L929 (Fibroblast cells)): about 89.65 μg/mL; viability at 24 h, 6.25 μg/mL [4]: 90.8%; viability at 24 h, 12.5 μg/mL [4]: 85.8%; viability at 24 h, 25 μg/mL [4]: 74.7%; viability at 24 h, 50 μg/mL [4]: 64.3%; viability at 24 h, 100 μg/mL [4]: 55.8%"
C[C@@H]1O[C@@H](Oc2cc3c(=O)oc4c(O)c(O)cc5c(=O)oc(c2O)c3c45)[C@H](O)[C@H](O)[C@H]1O [ellagic acid 4-O-alpha-1-rhamnopyranoside],,,,,,,,,,,,IC50 against FAS [1]: 7.5 microgram/mL
